Assay results reported in patent US20160166560A1, “Urea Compounds and Their Use as FAAH Enzyme Inhibitors” (BIAL-PORTELA & Cª, S.A., priority 2013, published 2016).
Structures can show the parent of a compound that is named as a salt.

Columns and labels:
CYPs = CYPs metabolic stability assay in HLM (human liver microsomes); format: in vitro ADME; settings: HLM 1 mg/ml protein, compound 5 μM, 60 min, 37° C.; for Control (% remain): absence of NADPH; for CYP+ (% remain): with NADPH 1 mM
Experimental: Stability of the test compounds was performed in HLM (human liver microsomes) in the presence and in the absence of NADPH.
The stability was measured using the incubation mixture (100 μl total volume) contained 1 mg/ml total protein, MgCl2 5 mM and 50 mM K-phosphate buffer. Samples were incubated in the presence and in the absence of NADPH 1 mM. Reactions were pre-incubated 5 min and the reaction initiated with the compound under test (at a concentration of 5 μM). Samples were incubated for 60 min in a shaking water bath at 37° C. The reaction was stopped by adding 100 μl of acetonitrile. Samples were then centrifuged, filtered and supematant injected in HLPC-MSD. Test compounds were dissolved in DMSO and the final concentration of DMSO in the reaction was below 0.5% (v/v). At T0 acetonitrile was added before adding the compound. All experiments were performed with samples in duplicate.

FAAH [1] = target: T1, FAAH (Mus musculus, UniProt O08914); assay: In vitro/ex vivo FAAH activity determination in brain after intra-tracheal instillation; design: Liver and brain fragments were removed and processed for enzymatic activity determination; from tissue; species or system male NMRI mice; settings: remaining enzymatic activity vs controls
T1 sequence (O08914 1-579): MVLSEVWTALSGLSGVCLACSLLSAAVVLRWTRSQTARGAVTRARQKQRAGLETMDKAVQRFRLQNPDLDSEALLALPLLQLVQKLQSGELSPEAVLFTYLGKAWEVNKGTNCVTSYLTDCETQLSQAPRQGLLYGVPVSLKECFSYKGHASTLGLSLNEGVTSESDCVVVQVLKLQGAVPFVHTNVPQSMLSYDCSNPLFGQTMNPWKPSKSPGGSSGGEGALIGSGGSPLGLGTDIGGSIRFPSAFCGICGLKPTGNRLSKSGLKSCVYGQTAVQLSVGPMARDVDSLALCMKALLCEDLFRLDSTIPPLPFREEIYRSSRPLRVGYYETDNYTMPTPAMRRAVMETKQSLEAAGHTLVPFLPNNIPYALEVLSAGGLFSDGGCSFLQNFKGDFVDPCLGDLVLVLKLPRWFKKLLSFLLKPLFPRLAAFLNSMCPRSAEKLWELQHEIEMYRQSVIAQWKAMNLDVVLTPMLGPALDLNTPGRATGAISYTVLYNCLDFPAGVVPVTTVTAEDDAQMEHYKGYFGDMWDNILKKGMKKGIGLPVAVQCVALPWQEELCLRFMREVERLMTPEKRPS
Experimental: (§1) To evaluate the selectivity of test compounds in inhibiting FAAH activity, male NMRI mice were administrated following instillation with 1 mg/kg compound and were sacrificed after 8 h treatment. Liver and brain fragments were removed and processed for enzymatic activity determination.
(§2) FAAH activity was measured as the amount of ^3H-ethanolamine formed, by liquid scintillation counting, from the hydrolysis of the substrate anandamide (AEA, labeled with ^3H on the ethanolamine part of the molecule). The percentage of remaining enzymatic activity was calculated in respect to controls and after blank subtraction. Therefore, a low value for the test compounds indicates a strong inhibitor.
(§3) Male NMRI mice (body weight range: 25-35 g) were obtained from Harlan Laboratories (Barcelona, Spain). Animals were kept 10 per cage, under controlled environmental conditions (12 hr light [8 am]/12 hr dark [8 pm]cycle; room temperature 22±1° C.). Food and tap water were allowed ad libitum. Animals were habituated to the animal facilities at least for a week prior to experiments. The experiments were all carried out during daylight hours.
(§4) Animals were fasted overnight before administration of compounds. […] After administration the animals were given atipamezole (1 mg/kg) to reverse the sedative and analgesic effects induced by the anaesthesia.
(§5) Fifteen minutes before sacrifice, animals were anesthetized with pentobarbital 60 mg/kg administrated intra-peritoneally. The brain (without cerebellum) and a fragment of liver were collected into plastic vials containing membrane buffer (3 mM MgCl2, 1 mM EDTA, 50 mM Tris HCl, pH 7.4). Glass beads (2.5 mm BioSpec Products, Bartlesville, Okla., USA) were added to the vials containing the brain and liver tissues. Tissues were stored at −20° C. until analysis.
(§6) Anandamide [ethanolamine-1-^3H-] was obtained from American Radiochemicals—with a specific activity of 60 Ci/mmol. All other reagents were obtained from Sigma-Aldrich. Optiphase Supermix was obtained from Perkin Elmer.
(§7) Brain and liver tissues were thawed and homogenized in 10 volumes of membrane buffer (3 mM MgCl2, 1 mM EDTA, 50 mM Tris HCl, pH 7.4) with homogenizer Precellys 24 Dual Tissue Homogenizer (Bertin Technologies) for 2 cycles of 5 sec (5000 rpm).
(§8) Total protein in the tissue homogenates was determined with the BioRad Protein Assay (BioRad) using a standard curve of BSA ([…]). Tissue homogenates were diluted to appropriate concentration for enzymatic determination in assay buffer (1 mM EDTA, 10 mM Tris HCl, pH 7.6).
(§9) Reaction mix (total volume 200 μL) contained 2 μM AEA (2 μM AEA+5 nM ^3H-AEA), 0.1% fatty acid free BSA, 15 μg (brain) or 5 μg (liver) protein, in assay buffer (1 mM EDTA, 10 mM Tris pH 7.6).
(§10) The test compound was used at a level of 1 mg/kg protein. After 15 minutes pre-incubation at 37° C. of the protein sample, reaction was started by the addition of the substrate solution (cold AEA+radiolabelled AEA+BSA). Reaction was carried out for 12 minutes for brain and liver tissues. Reaction was terminated by addition of 400 μL chloroform:methanol (1:1, v/v) solution. Reaction samples were vortex twice, left on ice for 5 minutes and then centrifuged in the microfuge for 7 minutes, 7000 rpm. 200 μL of the obtained supernatants were added to […] Optiphase Supermix scintillation cocktail previously distributed in 24-well plates.
(§11) Counts per minute (cpm) were determined in a Microbeta TriLux scintillation counter. In each assay blank samples (without protein) were prepared.

FAAH [2] = target: T1, FAAH; assay: In vitro/ex vivo FAAH activity determination in liver after intra-tracheal instillation; design: Liver and brain fragments were removed and processed for enzymatic activity determination; from tissue; host or cells: mouse liver fragment homogenate; species or system male NMRI mice; settings: remaining enzymatic activity vs controls
Experimental: as §1, §2, §3, §4, §5, §6, §7, §8, §9, §10, §11

[3] = Solubility assay in purified water; format: physicochemical; settings: pH 5.7, thermodynamic from solid; purified water pH=5.6-5.8, stirring 2 h, room temperature, HPLC
Experimental: A saturated solution was prepared by adding the test compound in excess to 1 mL of purified water (pH=5.6-5.8) followed by stirring of the mixture for 2 h at room temperature. Thereupon, the un-dissolved material was removed by filtration and the amount of test compound in the filtrate was quantified by HPLC using a calibration curve.

[4] = 1 mg/kg intra-tracheal instillation, sacrificed after 8 h
[5] = 1 mg/kg intra-tracheal instillation, sacrificed after 8 h, methanesulfonate, 1 mg/kg
[6] = tested at 0.1 mg/kg rather than 1 mg/kg

Row | Compound | Control (% remain) (CYPs) | CYP+ (% remain) (CYPs) | FAAH Activity - Brain itc (% C) (FAAH [1]; [4]) | FAAH Activity - Liver itc (% C) (FAAH [2]; [4]) | solubility at 2 h [3] | Control (% remain) (CYPs; methanesulfonate) | CYP+ (% remain) (CYPs; methanesulfonate) | FAAH Activity - Brain itc (% C) (FAAH [1]; [5]) | FAAH Activity - Liver itc (% C) (FAAH [2]; [5]) | FAAH Activity - Brain itc (% C) (FAAH [1]; [6]) | FAAH Activity - Liver itc (% C) (FAAH [2]; [6])
1 | COc1cccc(CN2CCC(N(C)C(=O)n3cnc(-c4cccc(NS(N)(=O)=O)c4)c3)CC2)c1 [Example 3, N-(1-(3-methoxybenzyl)piperidin-4-yl)-N-methyl-4-(3-(sulfamoylamino)phenyl)-1H-imidazole-1-carboxamide hydrochloride] | 103.5 % remain | 17.5 % remain | 96.0 % C | 5.3 % C | 7700 µg/mL | – | – | – | – | – | –
2 | CN(C(=O)n1cnc(-c2cccc(NC(N)=O)c2)c1)C1CCN(Cc2ccccc2)CC1.O=C(O)/C=C\C(=O)O [Example 21, N-(1-benzylpiperidin-4-yl)-N-methyl-4-(3-ureidophenyl)-1H-imidazole-1-carboxamide maleate] | – | – | 92.4 % C | 8.2 % C | 4300 µg/mL | – | – | – | – | – | –
3 | COc1cccc(CN2CCC(N(C)C(=O)n3cnc(-c4cccc(NS(N)(=O)=O)c4)c3)CC2)c1.CS(=O)(=O)O [Example 23, N-(1-(3-methoxybenzyl)piperidin-4-yl)-N-methyl-4-(3-(sulfamoylamino)phenyl)-1H-imidazole-1-carboxamide methanesulfonate] | – | – | 82.1 % C | 11.5 % C | > 16000 µg/mL | – | – | – | – | – | –
4 | COc1ccc(CN2CCC(N(C)C(=O)n3cnc(-c4cccc(NC(N)=O)c4)c3)CC2)cc1OC [Example 26, N-(1-(3,4-dimethoxybenzyl)piperidin-4-yl)-N-methyl-4-(3-ureidophenyl)-1H-imidazole-1-carboxamide hydrochloride] | 97.7 % remain | 81.4 % remain | 124.3 % C | 12.4 % C | – | – | – | – | – | – | –
5 | COc1cc(CN2CCC(N(C)C(=O)n3cnc(-c4ccc(OS(N)(=O)=O)cc4)c3)CC2)cc(OC)c1 [Example 27, 4-(1-((1-(3,5-dimethoxybenzyl)piperidin-4-yl)(methyl)carbamoyl)-1H-imidazol-4-yl)phenyl sulfamate methanesulfonate] | – | – | – | – | – | 96.9 % remain | 26.7 % remain | 84.3 % C | 13.9 % C | – | –
6 | CN(C(=O)n1cnc(-c2ccc(OS(N)(=O)=O)cc2)c1)C1CCN(c2ccc(O)cc2)CC1 [Example 28, 4-(1-((1-(4-hydroxyphenyl)piperidin-4-yl)(methyl)carbamoyl)-1H-imidazol-4-yl)phenyl sulfamate hydrochloride] | 84.8 % remain | 66.0 % remain | 91.0 % C | 3.4 % C | – | – | – | – | – | – | –
7 | CN(C(=O)n1cnc(-c2cccc(OS(N)(=O)=O)c2)c1)C1CCN(c2ccc(Br)c(O)c2)CC1 [Example 29, 3-(1-((1-(4-bromo-3-hydroxyphenyl)piperidin-4-yl)(methyl)carbamoyl)-1 H-imidazol-4-yl)phenyl sulfamate hydrochloride] | 79.6 % remain | 79.5 % remain | 97.6 % C | 10.5 % C | – | – | – | – | – | – | –
8 | CN(C(=O)n1cnc(-c2cccc(OS(N)(=O)=O)c2)c1)C1CCN(Cc2ccc3c(c2)OCO3)CC1 [Example 30, 3-(1-((1-(benzo[d][1,3]dioxol-5-ylmethyl)piperidin-4-yl)(methyl)carbamoyl)-1H-imidazol-4-yl)phenyl sulfamate hydrochloride] | 97.8 % remain | 64.8 % remain | 107.1 % C | 13.7 % C | – | – | – | – | – | – | –
9 | COc1cc(CN2CCC(N(C)C(=O)n3cnc(-c4cccc(C(N)=O)c4)c3)CC2)ccc1F [Example 31, 4-(3-carbamoylphenyl)-N-(1-(4-fluoro-3-methoxybenzyl)piperidin-4-yl)-N-methyl-1H-imidazole-1-carboxamide hydrochloride] | 111.7 % remain | 18.5 % remain | – | – | – | – | – | – | – | 87.7 % C | 13.1 % C
10 | COc1ccc(F)c(CN2CCC(N(C)C(=O)n3cnc(-c4cccc(C(N)=O)c4)c3)CC2)c1 [Example 32, 4-(3-carbamoylphenyl)-N-(1-(2-fluoro-5-methoxybenzyl)piperidin-4-yl)-N-methyl-1H-imidazole-1-carboxamide hydrochloride] | 115.2 % remain | 14.2 % remain | – | – | – | – | – | – | – | 96.0 % C | 12.8 % C
